Laboratory results published in US8501961B2, “HIV protease inhibitors and methods for using” (priority 2008, dated 2013).

What was measured:
[1] = target: HIV-1 protease (Human immunodeficiency virus type 1 group M subtype B (isolate HXB2) (HIV-1), UniProt P04585); test: HIV-1 protease enzyme inhibitory assay (protocol of Toth and Marshall); type: biochemical; details: for fold reduction in enzymatic inhibitory potency with respect to 3d: vs 3d; for potency compared to 3i: vs 3i
From the text: In another embodiment, inhibitors described herein contain a (R)-hydroxyethylamine sulfonamide isostere with a p-methoxysulfonamide as the P2′-ligand and various designed cyclic ethers and polyethers as the P2-ligands. In another embodiment, assays are described herein for evaluating compounds. Illustrative inhibitors described herein are initially evaluated in an enzyme inhibitory assay utilizing a protocol described by Toth and Marshall (Toth, M. V.; Marshall, G. R. A simple, continuous fluorometric assay for HIV protease. Int. J. Pep. Protein Res. 1990, 36, 544-550). […]

[2] = test system: HIV-1-LAI; test: Antiviral assay in MT-2 cells, inhibition of HIV-1-elicited cytopathic effect; type: cell-based; details: Human immunodeficiency virus 1, T-lymphoid, MT-2 human T-lymphoid cells exposed to HIV-1-LAI
[3] = Table 1, mean values of at least four determinations
[4] = Table 3, means of at least two experiments

Row | Compound | Ki [1, 3] [nM] | potency compared to 3i [1] | IC50 [2] [nM] | other results
1 | COc1ccc(S(=O)(=O)N(CC(C)C)C[C@@H](O)[C@H](Cc2ccccc2)NC(=O)O[C@H]2CCCOCOC2)cc1 [Inhibitor 3a, (1S,2R)-{1-Benzyl-2-hydroxy-3-[isobutyl(4-methoxybenzenesulfonyl)amino]propyl}carbamic acid (1S)-3,5-dioxacyclooctan-1-yl ester] | 0.15 ± 0.019 | – | – | –
2 | COc1ccc(S(=O)(=O)N(CC(C)C)C[C@@H](O)[C@H](Cc2ccccc2)NC(=O)O[C@@H]2CCCCOC2)cc1 [Inhibitor 3e, (1S,2R)-{1-Benzyl-2-hydroxy-3-[isobutyl(4-methoxybenzenesulfonyl)amino]propyl}carbamic acid (R)-oxepan-3-yl ester] | 0.81 ± 0.12 | – | – | fold reduction in enzymatic inhibitory potency with respect to 3d [1]: ~30 fold
3 | COc1ccc(S(=O)(=O)N(CC(C)C)C[C@@H](O)[C@H](Cc2ccccc2)NC(=O)O[C@H]2CCCOCC2)cc1 [Inhibitor 3f, (1S,2R)-{1-Benzyl-2-hydroxy-3-[isobutyl(4-methoxybenzenesulfonyl)amino]propyl}carbamic acid (S)-oxepan-4-yl ester] | 0.74 ± 0.15 | – | – | fold reduction in enzymatic inhibitory potency with respect to 3d [1]: ~30 fold
4 | COc1ccc(S(=O)(=O)N(CC(C)C)C[C@@H](O)[C@H](Cc2ccccc2)NC(=O)OC2CCCCCC2)cc1 [Inhibitor 3g, (1S,2R)-{1-Benzyl-2-hydroxy-3-[isobutyl(4-methoxybenzenesulfonyl)amino]propyl}carbamic acid Cycloheptanyl ester] | 27 ± 0.81 | – | – | –
5 | COc1ccc(S(=O)(=O)N(CC(C)C)C[C@@H](O)[C@H](Cc2ccccc2)NC(=O)OC2COCCOCCOCCOC2)cc1 [Inhibitor 3j, (1S,2R)-{1-Benzyl-2-hydroxy-3-[isobutyl(4-methoxybenzenesulfonyl)amino]propyl}carbamic acid 3,6,9,12-tetraoxacyclotridecan-1-yl ester] | 33 ± 1.9 | – | – | –
6 | COc1ccc(S(=O)(=O)N(CC(C)C)C[C@@H](O)[C@H](Cc2ccccc2)NC(=O)OC2COCCOCOCCOC2)cc1 [Inhibitor 3k, (1S,2R)-{1-Benzyl-2-hydroxy-3-[isobutyl(4-methoxybenzenesulfonyl)amino]propyl}carbamic acid 3,6,8,11-tetraoxacyclododecan-1-yl ester] | 6.3 ± 0.57 | more than 2 fold | > 1000 | fold potency enhancement compared to inhibitor 3j ([1]; vs 3j): 5 fold
7 | COc1ccc(S(=O)(=O)N(CC(C)C)C[C@@H](O)[C@H](Cc2ccccc2)NC(=O)OC2COCCS(=O)(=O)CCOC2)cc1 [Inhibitor 3l, (1S,2R)-{1-Benzyl-2-hydroxy-3-[isobutyl(4-methoxybenzenesulfonyl)amino]propyl}carbamic acid 3,9-dioxa-6-thiacyclodecan-1-yl 6,6-dioxide ester] | 1.9 ± 0.2 | 9 fold | > 1000 | –
8 | COc1ccc(S(=O)(=O)N(CC(C)C)C[C@@H](O)[C@H](Cc2ccccc2)NC(=O)OC2COCCN(C)CCOC2)cc1 [Inhibitor 3m, (1S,2R)-{1-Benzyl-2-hydroxy-3-[isobutyl(4-methoxybenzenesulfonyl)amino]propyl}carbamic acid N-methyl-1,7-dioxa-4-azocyclodecan-9-yl ester] | 19 ± 0.76 | no change in inhibitory activity | > 1000 | –
9 | COc1ccc(S(=O)(=O)N(CC(C)C)C[C@@H](O)[C@H](Cc2ccccc2)NC(=O)O[C@H]2CC3OCO[C@@H]3C2)cc1 (stereo partly drawn) [Inhibitor 126, (1′S,2′R)-{1′-Benzyl-2′-hydroxy-3′-[isobutyl(4-methoxybenzenesulfonyl)amino]propyl} carbamic acid (1β,2β,4α)-1,2-(methylenedioxy)cyclopent-4-yl ester] | – | – | – | Ki [1, 4]: 0.4 ± 0.04 nM; fold less potent than the syn isomer 102 ([1]; vs 102): 3.5 fold
10 | COc1ccc(S(=O)(=O)N(CC(C)C)C[C@@H](O)[C@H](Cc2ccccc2)NC(=O)O[C@H]2CC3OCCO[C@@H]3C2)cc1 (stereo partly drawn) [Inhibitor 129, (1′S,2′R)-{1′-Benzyl-2′-hydroxy-3′-[isobutyl(4-methoxybenzenesulfonyl)amino]propyl} carbamic acid (1β,2β,4α)-1,2-(ethylenedioxy)cyclopent-4-yl ester] | – | – | – | Ki [1, 4]: 0.5 ± 0.04 nM
